Paper PMC6511062, “Preclinical candidate for the treatment of visceral leishmaniasis that acts through proteasome inhibition” (Proceedings of the National Academy of Sciences of the …, 2019)
Values joined by “and” are separate entries in the source; they are usually repeats but may differ in a detail not shown here. Equal entries are not always repeated. Where two headings read alike, the source gives them in different places.

Assays:
[1] = tested on: clinically-relevant Leishmania strains; assay: Activity in clinically-relevant Leishmania strains; type: cell-based
Text: Strain Leishmania EC50 (µM) Host Cell EC50 (µM)
Results from one or two (both values shown) biological replicates. […]

[2] = target: chymotrypsin-like activity of the L. donovani proteasome (Leishmania donovani, UniProt A0A3S7XA80+A0ACM8QMP6, G197C/T30A); assay: biochemical
Chain of chymotrypsin-like activity of the L. donovani proteasome (Leishmania donovani, UniProt A0A3S7XA80+A0ACM8QMP6, G197C/T30A) (A0ACM8QMP6 entry or part of it, stated change not applied): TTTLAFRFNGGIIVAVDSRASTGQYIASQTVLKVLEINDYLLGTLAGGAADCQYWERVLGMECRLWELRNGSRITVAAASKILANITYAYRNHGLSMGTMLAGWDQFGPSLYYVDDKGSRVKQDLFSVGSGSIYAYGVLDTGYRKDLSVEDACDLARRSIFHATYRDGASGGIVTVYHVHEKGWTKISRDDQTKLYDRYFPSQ
Chain of chymotrypsin-like activity of the L. donovani proteasome (Leishmania donovani, UniProt A0A3S7XA80+A0ACM8QMP6, G197C/T30A) (A0A3S7XA80 whole entry, stated change not applied): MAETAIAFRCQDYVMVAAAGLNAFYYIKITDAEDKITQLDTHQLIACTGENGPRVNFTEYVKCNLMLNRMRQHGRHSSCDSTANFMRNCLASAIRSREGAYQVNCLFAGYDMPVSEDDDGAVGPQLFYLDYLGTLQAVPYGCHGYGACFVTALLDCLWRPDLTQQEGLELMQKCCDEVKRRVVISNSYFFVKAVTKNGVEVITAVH
Description: (§4) An in vitro assay was developed that enabled the chymotrypsin-like activity and additional proteolytic activities associated with the proteasome to be directly monitored within proteasome-enriched parasite cell lysates. Likewise, human proteasome from two sources (i.e., commercially pure 26S and enriched proteasome fractions from THP-1 lysates) was tested using the same biochemical assays.
(§5) Proteasome enrichment by ultracentrifugation
(§6) The protocol described by Kisselev et al.34 was adapted to enrich the proteasomes present in L. donovani and THP1 crude extracts. L. donovani or THP1 cells were resuspended in sucrose buffer (50 mM Tris buffer pH 7.5, 5 mM Magnesium chloride, 1 mM EDTA, 50 mM NaCl, 250 mM sucrose, 2 mM ATP, 1 mM DTT) and lysed by nitrogen cavitation for 15 min (110 bars of 1500 psi). Lysates were centrifuged at 20,000g for 30 min at 4 °C and supernatants containing soluble protein were subjected to an ultracentrifugation step at 300,000g for 2h at 4 °C. The resulting proteasome-containing pellets were resuspended in sucrose buffer and left on ice for 30 min to complete solubilization. Samples were centrifuged for 10 min at 20,000 g to remove insoluble material. Proteins contained in supernatant (proteasome enriched fraction) were measured by Bradford.
Proteasome activity assays
(§7) Compounds were dispensed into black 384-well assay plates (Greiner) by acoustic dispensing (LabCyte ECHO). For potency determinations, eleven-point, one in three dilution curves were generated, with a top concentration of 100 µM. Three proteasome activities were measured using a commercially available indirect enzyme-based luminescent assay kit (Promega) with Suc-LLVY-aminoluciferin, Z-LRR-aminoluciferin and Z-nLPnLD-aminoluciferin used as substrates for chymotrypsin-like, trypsin-like and caspase-like activities, respectively. In addition to proteasome samples: L. donovani and THP1-enriched proteasomes, commercially available human purified 26S proteasome (Boston Biochem) was also assessed.

[3] = target: chymotrypsin-like activity of the L. donovani proteasome (Leishmania donovani, UniProt A0A3S7XA80+A0ACM8QMP6); assay: biochemical
Chain of chymotrypsin-like activity of the L. donovani proteasome (Leishmania donovani, UniProt A0A3S7XA80+A0ACM8QMP6) (A0ACM8QMP6 100-302): as the sequence (A0ACM8QMP6 entry or part of it, stated change not applied) above
Chain of chymotrypsin-like activity of the L. donovani proteasome (Leishmania donovani, UniProt A0A3S7XA80+A0ACM8QMP6) (A0A3S7XA80 1-206): as the sequence (A0A3S7XA80 whole entry, stated change not applied) above
Description: as §4, §5, §6
Proteasome activity assays
as §7

L. donovani (LV9) [4] = assay: Mouse model of VL (in vivo efficacy in female Balb/C mice); design: species or system Leishmania donovani; details: 50 mg/kg b.i.d. (10 days PO)
L. donovani (LV9) [5] = assay: as above; design: species or system Leishmania donovani
Description: Infected mice were dosed at 3, 10, or 25 mg/kg orally twice a day for 10 consecutive days. Two days after the termination of treatment, mice were euthanized, and the parasite burdens in their livers were determined.
Peripheral blood samples were obtained at 5, 15, 30 min, 1, 2, 4, 6 ,8 and 24 h after intravenous administration and 15, 30, 45 min,1, 2, 4, 6, 8 and 24 h after oral administration. Blood was 1/2 diluted with milliQ water and immediately frozen on dry ice until analysis. Quantification was performed by means of LC-MS/MS (API4000), with a lower limit of quantification of 1 ng/mL. […]
Data analysis and calculation of pharmacokinetic parameters was performed using Phoenix, WinNonLin Version 6.3. […]
For both intravenous and oral administration, the systemic exposures were determined by calculating the area under the blood concentration time curve (AUC) from the start of dosing to the last observed quantifiable concentration (AUC0-t) by using the linear up-log down trapezoidal rule. The slope of the terminal elimination phase was estimated by linear regression of the terminal data points (minimum 3 points) from a natural log concentration versus time plot of the data. The half-life (t1/2) of the terminal elimination phase was calculated as t1/2 = 0.693/λ.
7. In vivo efficacy in female Balb/C mice
To establish infection in mice, sodium stibogluconate-sensitive L. donovani (LV9, WHO designation: MHOM/ET/67/HU3) amastigotes were isolated from the spleen of a heavily infected donor hamster (Janvier, France)7. An inoculum containing 1.0 x 10^8 amastigotes/mL in Dulbecco’s modified eagles medium (high glucose) was prepared […]
and female BalbC mice (Harlan, UK) then infected intravenously via the tail vein with a 0.2 mL bolus (equivalent to ~2.0 x 10^7 amastigotes). Infection was left to establish for […]
daily orally as a suspension in 0.5% hydroxypropylmethylcellulose, 0.4% tween 80 and 0.5% benzyl alcohol. With twice daily regimens, the second daily dose was administered approximately 8 h following the first dose. Dose regimens evaluated were:
1. 50 mg/kg twice daily for 5 days
2. 25 mg/kg, 10 mg/kg and 3 mg/kg twice daily for 10 days
3. 25 mg/kg once daily for 10 days
Miltefosine, as the only oral treatment for visceral leishmaniasis, was used as a […]

Host Cell = assay: Host cell toxicity in the clinical strain panel; type: cell-based
Text: page 46: Supplementary Tables Table S1. […] MHOM/IN/2002/BHU1 0.6 >50 […] Results from one or two (both values shown) biological replicates. Table S2. […] Data represents % of reduction of parasite burden in drug- treated and vehicle control animals calculated from mean LDU data.

TA100 = tested on: TA100
Description: (§1) oxidative metabolism system (S9-mix). The maximum concentration tested and […]
(§2) Compound 7a was tested in a bacterial mutation screening assay (Ames test) with Salmonella typhimurium TA1535, TA1537, TA98, TA100 and Escherichia coli WP2uvrA(pKM101) in the presence and absence of an exogenous mammalian […]
(§3) The bacterial mutation screening assay was a plate incorporation test carried out as previously described15 and according to current methodology. […]

TA1535 = tested on: TA1535
Description: as §1, §2, §3

[6] = tested on: human proteasome catalytic subunits (THP-1 extracts); assay: Activity-based probe (UbiQ-018) labelling of THP-1 proteasome; type: binding; details: human THP-1 extracts, 100 µM
Description: Activity-Based Probe Labelling of THP1 and L. donovani proteasome
Proteasome enriched fractions from THP1 (20 µg), L. donovani (10 µg) and L. donovani
µM for 1 h. Proteasome enriched fractions were also incubated with DMSO as control.
For all proteasome labelling experiments, the active-site probe Me4BodipyFL-Ahx3Leu3VS (UbiQ-018) was used at final concentration of 500 nM in sucrose buffer (50 mM Tris buffer pH 7.5, 5 mM magnesium chloride, 1 mM EDTA, 50 mM NaCl, 250 mM sucrose, 2 mM ATP, 1 mM DTT). Proteasome enriched fractions treated with
DMSO or test compounds, were incubated with the probe for 2h at RT. Samples were then denatured by addition of Laemmli sample buffer, heated to 95°C for 10 min and separated by electrophoresis on a 15% SDS-PAGE acrylamide gel. Following separation, gels were scanned in the fluorescein channel of a ChemiDoc reader (λ excitation/emission = 480/530 nm). Fluorescent proteins were excised and MALDI– TOF analysis carried out by the FingerPrints Proteomics service at the University of

[7] = 10-d treatment orally twice a day
[8] = with S9-mix, dose level 50 per plate
[9] = with S9-mix, dose level 150 per plate
[10] = with S9-mix, dose level 500 per plate
[11] = with S9-mix, dose level 1500 per plate
[12] = with S9-mix, dose level 2500 per plate
[13] = with S9-mix, dose level 5000 per plate
[14] = without S9-mix, dose level 50 per plate
[15] = without S9-mix, dose level 150 per plate
[16] = without S9-mix, dose level 500 per plate
[17] = without S9-mix, dose level 1500 per plate
[18] = without S9-mix, dose level 2500 per plate
[19] = without S9-mix, dose level 5000 per plate

O=C(Nc1ccc(F)c(-c2ccn3c(N4CCOCC4)cnc3n2)c1)N1CCCC1 [Compound 8]
EC50 ([1]; Leishmania, in vitro, clinical strains incl. LV9, SUKA001, DD8-WT, BHU1, read-out: EC50 against clinical strains): ~1000 nM | EC50 ([1]; Leishmania, strain MHOM/ET/67/HU3 (LV9), read-out: Leishmania EC50): 400 nM | EC50 ([1]; Leishmania, strain MHOM/IN/80/DD8, read-out: Leishmania EC50): 1600 nM | EC50 ([1]; Leishmania, strain MHOM/IN/2002/BHU1, read-out: Leishmania EC50): 600 nM | EC50 ([1]; Leishmania, strain SUKA001, read-out: Leishmania EC50): 500 nM | EC50 ([1]; strain MHOM/ET/67/HU3 (LV9), read-out: Leishmania EC50): 800 nM | IC50 [2]: > 100000 nM | IC50 [3]: 160 ± 10 nM | Reduction in parasite burden (compared to the vehicle control group) (L. donovani (LV9) [4]): 99.1% | Reduction in parasite burden (compared to the vehicle control group) (L. donovani (LV9) [5]; 3 mg/kg b.i.d. (10 days PO)): 18.4% | Reduction in parasite burden (compared to the vehicle control group) (L. donovani (LV9) [5]; 10 mg/kg b.i.d. (10 days PO)): 56.9% | Reduction in parasite burden (compared to the vehicle control group) (L. donovani (LV9) [5]; 25 mg/kg b.i.d. (10 days PO)): 98.1% and > 95% | exposure giving >95% parasite burden reduction (L. donovani (LV9) [5]; 25 mg/kg twice a day for 10 days): 27 μg/h per mililiter | Reduction in parasite burden (compared to the vehicle control group) (L. donovani (LV9) [5]; 25 mg/kg u.i.d. (10 days PO)): 8.8% | ED90 (L. donovani (LV9) [5]; [7]): 16 mg/kg | ED99 (L. donovani (LV9) [5]; [7]): 30 mg/kg | ED50 (L. donovani (LV9) [5]; Leishmania donovani, po, 240 h, 10-d treatment orally twice a day): 8.9 mg/kg | EC50 (Host Cell; strain MHOM/ET/67/HU3 (LV9)): > 50000 nM | EC50 (Host Cell; strain MHOM/IN/80/DD8): > 50000 nM | EC50 (Host Cell; strain MHOM/IN/2002/BHU1): > 50000 nM | EC50 (Host Cell; strain MHOM/MA/67/ITMAP263): > 50000 nM | EC50 (Host Cell; strain SUKA001): > 50000 nM | Mean revertants per plate (TA100; [8]): 123.0 | Mean revertants per plate (TA100; [9]): 96.5 | Mean revertants per plate (TA100; [10]): 106.5 | Mean revertants per plate (TA100; [11]): 118.0 | Mean revertants per plate (TA100; [12]): 101.0 | Mean revertants per plate (TA100; [13]): 122.5 | Mean revertants per plate (TA100; [14]): 99.0 | Mean revertants per plate (TA100; [15]): 97.0 | Mean revertants per plate (TA100; [16]): 86.0 | Mean revertants per plate (TA100; [17]): 109.5 | Mean revertants per plate (TA100; [18]): 91.5 | Mean revertants per plate (TA100; [19]): 94.5 | Mean revertants per plate (TA1535; [8]): 12.0 | Mean revertants per plate (TA1535; [9]): 10.0 | Mean revertants per plate (TA1535; [10]): 17.5 | Mean revertants per plate (TA1535; [11]): 13.5 | Mean revertants per plate (TA1535; [12]): 12.5 | Mean revertants per plate (TA1535; [13]): 9.0 | Mean revertants per plate (TA1535; [14]): 19.0 | Mean revertants per plate (TA1535; [15]): 15.0 | Mean revertants per plate (TA1535; [16]): 21.5 | Mean revertants per plate (TA1535; [17]): 16.0 | Mean revertants per plate (TA1535; [18]): 15.5 | Mean revertants per plate (TA1535; [19]): 18.0 | UbiQ-018 labelling of proteasome subunits [6]: no effect
